The target of one test is tyrosinase (Homo sapiens, UniProt P14679). The conditions noted are these: human melanocyte cultures; cited from earlier work.
A further test has as its system skin. Briefly: Skin lightening in volunteers by Minolta Chromameter b* parameter. It counts as in vivo, human. The conditions noted are these: for dose dependence of skin lightening efficacy: 4% versus 7% arbutin in Examples 1 and 2 base formulas. The source says:
Ten volunteers between the ages of 18 and 60 years of age enrolled in the study. Volunteers included in the study were of Asian or Caucasian descent with a Fitzpatrick phototype III or above. Enrolled subjects were free of any systemic or dermatologic disorder, including a known history of allergies or other medical conditions which, in the opinion of the Medical Investigator, could interfere with the conduct of the study, interpretation of results, or increase the risk of adverse reactions. Moreover, volunteers had no clinically significant abnormal findings, based on their medical history, which may have affected study participation as determined by the investigator. Impaneled female volunteers were not pregnant (as assessed with a urine pregnancy test at the start of the study and every 4 weeks thereafter) and agreed to use suitable contraceptive methods throughout the duration of the study. All volunteers were willing to refrain from using any medications, moisturizers, sunscreens, fragrances or new personal care products/laundry detergents on the back for the duration of the study and were also willing to avoid sun exposure, on the back (ie, sunbathing), as best as possible and refrain from using tanning booths for the study duration. Furthermore, subjects agreed to avoid swimming for the entire study.
All volunteers reported to the clinical site every day, excluding weekends, for application of study products in an open label, un-blinded fashion. Study products and dosing were as follows:
All subjects had 2 cm^2 squares demarcated on their backs, with a plastic template adhered to the skin, for identification of treatment sites. […]
The safety of the formulations of Example 1 and Example 2 was assessed via Repeated Insult Patch Testing on 49 volunteers, in a separate study. All products used in the study presented herein were evaluated for safety through investigator scoring of the application sites at baseline, 4- and 8-weeks. […] Skin lightening was assessed via use of the Minolta CR-300 Chromameter® at baseline, 4- and 8-weeks. […]

tyrosinase, sequence (P14679 19-529): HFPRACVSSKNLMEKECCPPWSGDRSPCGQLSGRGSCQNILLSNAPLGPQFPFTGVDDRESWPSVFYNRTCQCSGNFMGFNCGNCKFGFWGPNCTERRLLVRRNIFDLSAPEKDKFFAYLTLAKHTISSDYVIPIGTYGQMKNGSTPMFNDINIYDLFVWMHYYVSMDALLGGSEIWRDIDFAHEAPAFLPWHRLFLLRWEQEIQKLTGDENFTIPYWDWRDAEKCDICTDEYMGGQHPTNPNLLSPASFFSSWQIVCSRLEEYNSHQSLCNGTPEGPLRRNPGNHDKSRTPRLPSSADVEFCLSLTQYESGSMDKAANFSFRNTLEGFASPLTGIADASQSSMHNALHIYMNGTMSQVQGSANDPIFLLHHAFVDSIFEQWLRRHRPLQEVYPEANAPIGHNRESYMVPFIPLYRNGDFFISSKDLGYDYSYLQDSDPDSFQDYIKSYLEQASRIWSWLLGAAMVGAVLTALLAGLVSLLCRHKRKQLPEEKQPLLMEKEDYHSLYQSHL

In the case of `OC[C@H]1O[C@@H](Oc2ccc(O)cc2)[C@H](O)[C@@H](O)[C@@H]1O` [Arbutin, hydroxy phenyl-b-D-glucopyranoside], the “tyrosinase inhibiting potency relative to hydroquinone” value at tyrosinase is recorded as “one-hundredth that of hydroquinone”. The entries for the “dose dependence of skin lightening efficacy” value in the test with skin and in the test on skin (listed as arbutin) were “dose dependent” and “dose dependant”, respectively. Moreover, the “skin lightening efficacy of 7% arbutin versus 4% hydroquinone” value in the test with skin (7% arbutin, relatively non-photoexposed skin, formulas similar to bleaching and correcting cream and Blender bases) was “equally as efficacious as 4% hydroquinone”.

(Values after patent US9883998B2, “Methods for lightening skin using arbutin compositions” (OMP, Inc., priority 2007, dated 2018).)
